These results are taken from patent US5643931A, “Bisoxadiazolidine derivative” (Yamanouchi Pharmaceutical Co., Ltd., priority 1993, dated 1997).

In the assay the test system is kk mice. Nature of the assay: Hypoglycemic action (blood sugar level decreasing ratio after 4 days of oral administration). The format is in vivo. Conditions: 30 mg/day, daily for 4 days, in 0.5% methyl cellulose, six male kk mice per group, blood sampled before and on fifth day, *** = p<0.001. As for the experimental part: Male kk mice of 4 to 5 w were purchased from CLEA Japan Inc. These animals were separately reared with a high calorie food (CMF, manufactured by Oriental Yeast), and the animals of which the body weight was more than 40 g were used in the test.
Measurement of the blood sugar level was carried out by collecting a 10 μl portion of blood from a tail vein, removing protein from the collected sample by its treatment with 100 μl of 0.33N perchloric acid, and after centrifugation, measuring glucose in the resulting supernatant by the glucose oxidase method. Six animals having a blood sugar level of more than 200 mg/dl were used as one group in the test.
Each drug was suspended in 0.5% methyl cellulose and orally administered daily for 4 days. Blood samples were collected before and on the fifth day of the drug administration from the tail vein. Blood sugar level was determined with the aforementioned method.
The hypoglycemic activity was expressed as the blood sugar level decreasing ratio to the pre-administration level and statistically evaluated as a significant threshold value of p=0.05.

SMILES strings stand for the structures.

Consider `O=c1[nH]c(=O)n(Cc2ccc(Oc3cccc(Oc4ccc(Cn5oc(=O)[nH]c5=O)cc4)c3)cc2)o1` [Example 6, 1,3-Bis[4-[(3,5-dioxo-1,2,4-oxadiazolidin-2-yl)methyl]phenoxy]benzene], for which the “blood sugar level decreasing ratio to the pre-administration level” value is listed as 53%.
